Activity calls are given as the source filed them. The rule behind the calls is not given here.
Assays:
[1] = Drug level in rat treated with osimertinib at 5 mg/kg, po by LC-MS analysis; format: ADME, organism-based; settings: in vivo
[2] = biological target: Epidermal growth factor receptor (Homo sapiens, UniProt P00533, L858R/T790M); test: Inhibition of recombinant human N-terminal GST-tagged EGFR T790M/L858R double mutant using biotinylated TK peptide as substrate measured after 30 mins by HTRF assay
[3] = biological target: Epidermal growth factor receptor (Homo sapiens, UniProt P00533); test: Inhibition of wild-type EGFR (unknown origin) using biotinylated TK peptide as substrate measured after 30 mins by HTRF assay
[4] = test system: A-431; test: Cytotoxicity against human A-431 cells harboring wild-type EGFR measured after 72 hrs by celltiter-glo assay; format: cell-based; settings: A-431, 72 h
[5] = test system: NCI-H1975; test: Antiproliferative activity against human NCI-H1975 cells harboring EGFR L858R/T790M double mutant measured after 72 hrs by celltiter-glo assay; format: functional, cell-based; settings: NCI-H1975, 72 h
[6] = test system: Mus musculus; test: In vivo inhibition of EGFR T790M/L858R double mutant in nude mouse xenografted with human NCI-H1975 cells assessed as reduction in EGFR phosphorylation at 5 mg, ig measured after 6 hrs by Western blot analysis; format: functional, organism-based
[7] = Drug level in rat treated with N-(5-(4-(1-cyclopropyl-1H-indol-3-yl)pyrimidin-2-ylamino)-2-((2-(dimethylamino)ethyl)(methyl)amino)-4-methoxyphenyl)acrylamide at 5 mg/kg, po by LC-MS analysis; format: ADME, organism-based; settings: in vivo
[8] = test system: Mus musculus; test: In vivo inhibition of EGFR T790M/L858R double mutant in nude mouse xenografted with human NCI-H1975 cells assessed as reduction in AKT phosphorylation at 5 mg, ig measured after 6 hrs by Western blot analysis; format: functional, organism-based
[9] = Toxicity in BALB/c nude mouse xenografted with human NCI-H1975 cells harboring EGFR T790M/L858R double mutant assessed as effect on body weight at 5 mg/kg, po administered once daily for 11 days measured twice daily during compound dosing; format: organism-based; settings: in vivo, 264 h, time 11 day
[10] = MRT (0 to infinity) in rat at 5 mg/kg, po by LC-MS analysis; format: ADME, organism-based; settings: in vivo
[11] = AUC (0 to infinity) in rat at 5 mg/kg, po by LC-MS analysis; format: ADME, organism-based; set-up: time infinity, route oral, dose 5 mg/kg; settings: in vivo
[12] = test system: NCI-H1975; test: Potency index, ratio of osimertinib IC50 to test compound IC50 for antiproliferative activity against human NCI-H1975 cells harboring EGFR L858R/T790M double mutant; format: functional
[13] = Tmax in rat at 5 mg/kg, po by LC-MS analysis; format: ADME, organism-based; settings: in vivo
[14] = Tmax in rat assessed as N-(5-(4-(1-cyclopropyl-1H-indol-3-yl)pyrimidin-2-ylamino)-4-methoxy-2-(methyl(2-(methylamino)ethyl)amino)phenyl)acrylamide level at 5 mg/kg, po by LC-MS analysis; format: ADME, organism-based; settings: in vivo
[15] = AUC (0 to 8 hrs) in rat at 5 mg/kg, po by LC-MS analysis; format: ADME, organism-based; set-up: time < 8 hr, route oral, dose 5 mg/kg; settings: in vivo
[16] = Cmax in rat at 5 mg/kg, po by LC-MS analysis; format: ADME, organism-based; set-up: route oral, dose 5 mg/kg; settings: in vivo
[17] = test system: NCI-H1975; test: Antitumor activity against human NCI-H1975 cells harboring EGFR L858R/T790M double mutant xenografted in BALB/c nude mouse assessed as tumor growth inhibition at 5 mg/kg, po administered once daily for 11 days relative to control; format: functional; settings: time 11 day
[18] = Oral bioavailability in rat at 5 mg/kg by LC-MS analysis; format: ADME, organism-based; settings: in vivo
[19] = Cmax in rat assessed as N-(5-(4-(1-cyclopropyl-1H-indol-3-yl)pyrimidin-2-ylamino)-4-methoxy-2-(methyl(2-(methylamino)ethyl)amino)phenyl)acrylamide level at 5 mg/kg, po by LC-MS analysis; format: ADME, organism-based; set-up: route oral, dose 5 mg/kg; settings: in vivo
[20] = Half life in rat at 5 mg/kg, po by LC-MS analysis; format: ADME, organism-based; settings: in vivo
[21] = AUC (0 to 8 hrs) in rat assessed as N-(5-(4-(1-cyclopropyl-1H-indol-3-yl)pyrimidin-2-ylamino)-4-methoxy-2-(methyl(2-(methylamino)ethyl)amino)phenyl)acrylamide level at 5 mg/kg, po by LC-MS analysis; format: ADME, organism-based; set-up: time < 8 hr, route oral, dose 5 mg/kg; settings: in vivo
[22] = test system: Mus musculus; test: In vivo inhibition of EGFR T790M/L858R double mutant in nude mouse xenografted with human NCI-H1975 cells assessed as reduction in ERK phosphorylation at 5 mg, ig measured after 6 hrs by Western blot analysis; format: functional, organism-based
[23] = Tmax in rat assessed as N-(5-(4-(1H-indol-3-yl)pyrimidin-2-ylamino)-2-((2-(dimethylamino)ethyl)(methyl)amino)-4-methoxyphenyl)acrylamide level at 5 mg/kg, po by LC-MS analysis; format: ADME, organism-based; settings: in vivo
[24] = Cmax in rat assessed as N-(5-(4-(1H-indol-3-yl)pyrimidin-2-ylamino)-2-((2-(dimethylamino)ethyl)(methyl)amino)-4-methoxyphenyl)acrylamide level at 5 mg/kg, po by LC-MS analysis; format: ADME, organism-based; set-up: route oral, dose 5 mg/kg; settings: in vivo
[25] = MRT (0 to infinity) in rat assessed as N-(5-(4-(1H-indol-3-yl)pyrimidin-2-ylamino)-2-((2-(dimethylamino)ethyl)(methyl)amino)-4-methoxyphenyl)acrylamide level at 5 mg/kg, po by LC-MS analysis; format: ADME, organism-based; settings: in vivo
[26] = Drug metabolism in rat assessed as N-(4-methoxy-2-(methyl(2-(methylamino)ethyl)amino)-5-(4-(1-methyl-1H-indol-3-yl)pyrimidin-2-ylamino)phenyl)acrylamide formation at 5 mg/kg, po by LC-MS analysis; format: ADME, organism-based; settings: in vivo

Chain of Epidermal growth factor receptor (Homo sapiens, UniProt P00533, L858R/T790M) (P00533 25-1210 T790M/L858R limits assumed): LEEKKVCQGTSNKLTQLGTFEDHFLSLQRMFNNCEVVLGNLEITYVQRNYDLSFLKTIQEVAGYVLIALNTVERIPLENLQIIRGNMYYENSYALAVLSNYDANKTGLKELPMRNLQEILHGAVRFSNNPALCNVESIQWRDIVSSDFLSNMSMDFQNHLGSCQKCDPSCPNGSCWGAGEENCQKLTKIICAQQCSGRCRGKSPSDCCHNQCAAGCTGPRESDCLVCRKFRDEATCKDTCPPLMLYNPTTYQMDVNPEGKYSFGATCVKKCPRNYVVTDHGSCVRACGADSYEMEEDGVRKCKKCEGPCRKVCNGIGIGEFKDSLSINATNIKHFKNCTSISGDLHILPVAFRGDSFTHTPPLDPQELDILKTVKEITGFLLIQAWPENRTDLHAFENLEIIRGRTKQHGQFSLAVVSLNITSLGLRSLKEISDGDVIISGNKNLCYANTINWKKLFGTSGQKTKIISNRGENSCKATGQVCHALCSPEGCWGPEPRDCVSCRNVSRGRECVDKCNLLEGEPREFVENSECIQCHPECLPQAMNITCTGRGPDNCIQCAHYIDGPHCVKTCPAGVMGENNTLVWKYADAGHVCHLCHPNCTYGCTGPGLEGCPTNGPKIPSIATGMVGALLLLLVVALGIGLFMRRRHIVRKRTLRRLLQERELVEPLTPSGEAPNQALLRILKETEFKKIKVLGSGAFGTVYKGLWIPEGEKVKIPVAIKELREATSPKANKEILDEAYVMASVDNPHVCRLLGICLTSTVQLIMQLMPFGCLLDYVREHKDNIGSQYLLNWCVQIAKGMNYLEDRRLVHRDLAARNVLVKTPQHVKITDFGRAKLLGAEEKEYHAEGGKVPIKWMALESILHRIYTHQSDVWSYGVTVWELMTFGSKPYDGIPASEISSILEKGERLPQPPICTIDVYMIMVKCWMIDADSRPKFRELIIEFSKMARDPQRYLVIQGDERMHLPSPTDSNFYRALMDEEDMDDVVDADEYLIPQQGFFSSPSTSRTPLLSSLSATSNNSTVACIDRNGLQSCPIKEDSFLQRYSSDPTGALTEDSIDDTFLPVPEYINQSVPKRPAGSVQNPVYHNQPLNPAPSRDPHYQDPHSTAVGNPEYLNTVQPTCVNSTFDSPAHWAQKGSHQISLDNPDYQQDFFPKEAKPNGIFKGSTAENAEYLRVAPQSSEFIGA
Chain of Epidermal growth factor receptor (Homo sapiens, UniProt P00533) (P00533 whole entry): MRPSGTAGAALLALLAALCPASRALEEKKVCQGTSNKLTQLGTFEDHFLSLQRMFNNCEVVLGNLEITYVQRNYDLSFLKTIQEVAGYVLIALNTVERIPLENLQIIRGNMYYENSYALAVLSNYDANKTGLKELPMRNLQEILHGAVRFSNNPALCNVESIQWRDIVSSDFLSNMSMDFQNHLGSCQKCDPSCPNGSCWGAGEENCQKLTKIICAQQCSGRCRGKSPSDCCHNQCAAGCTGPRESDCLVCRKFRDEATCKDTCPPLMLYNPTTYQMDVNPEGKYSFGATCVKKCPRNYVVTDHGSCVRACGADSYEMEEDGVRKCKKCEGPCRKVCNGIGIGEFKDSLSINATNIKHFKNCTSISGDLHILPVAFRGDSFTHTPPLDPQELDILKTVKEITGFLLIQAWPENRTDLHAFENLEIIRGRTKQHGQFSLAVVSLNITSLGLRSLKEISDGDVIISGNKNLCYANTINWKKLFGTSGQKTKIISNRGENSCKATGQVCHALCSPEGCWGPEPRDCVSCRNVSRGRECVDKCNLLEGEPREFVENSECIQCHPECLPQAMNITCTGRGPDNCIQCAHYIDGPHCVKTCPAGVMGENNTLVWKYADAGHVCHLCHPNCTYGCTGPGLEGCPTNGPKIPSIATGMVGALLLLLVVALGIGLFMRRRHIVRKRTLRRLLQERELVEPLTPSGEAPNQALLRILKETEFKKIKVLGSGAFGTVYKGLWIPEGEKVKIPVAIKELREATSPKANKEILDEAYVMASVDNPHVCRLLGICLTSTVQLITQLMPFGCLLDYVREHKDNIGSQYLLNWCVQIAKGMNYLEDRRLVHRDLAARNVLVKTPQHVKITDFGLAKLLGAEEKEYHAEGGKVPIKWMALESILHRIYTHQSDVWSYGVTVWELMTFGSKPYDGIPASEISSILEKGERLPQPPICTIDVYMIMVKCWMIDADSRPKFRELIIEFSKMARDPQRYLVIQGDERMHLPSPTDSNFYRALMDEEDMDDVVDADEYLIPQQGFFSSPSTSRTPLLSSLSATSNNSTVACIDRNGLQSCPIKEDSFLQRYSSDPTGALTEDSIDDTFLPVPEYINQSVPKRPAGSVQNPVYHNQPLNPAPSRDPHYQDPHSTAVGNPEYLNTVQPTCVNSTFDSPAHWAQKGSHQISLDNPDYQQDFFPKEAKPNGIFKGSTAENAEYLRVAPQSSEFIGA

With `C=CC(=O)Nc1cc(Nc2nccc(-c3c[nH]c4ccccc34)n2)c(OC)cc1N(C)CCN(C)C` the Drug uptake [1] was “Active”.

For `C=CC(=O)Nc1cc(Nc2nccc(-c3cn(C)c4ccccc34)n2)c(OC)cc1N(C)CCNC`, the Drug uptake [1] was “Active”.

In the case of `C=CC(=O)Nc1cc(Nc2nccc(-c3cn(C(C)=O)c4ccccc34)n2)c(OC)cc1N(C)CCN(C)C`, the IC50 [2] is reported as 2.09 nM, the IC50 [3] is reported as 15.5 nM and the IC50 [4] is reported as 192 nM. It also gave an IC50 [5] of 15.8 nM.

For `C=CC(=O)Nc1cc(Nc2nccc(-c3cn(CCO)c4ccccc34)n2)c(OC)cc1N(C)CCN(C)C`, the IC50 [2] was 0.86 nM, the IC50 [3] was 1.54 nM and the IC50 [4] was 208 nM. The IC50 [5] was 2.2 nM.

With `C=CC(=O)Nc1cc(Nc2ncc(C(F)(F)F)c(-c3cn(C4CC4)c4ccccc34)n2)c(OC)cc1N(C)CCN(C)C` the inhibition [6] was “Active”, the IC50 [4] was 59 nM and the IC50 [5] was 8.15 nM.

In the case of `C=CC(=O)Nc1cc(Nc2nccc(-c3cn(C4CC4)c4ccccc34)n2)c(OC)cc1N(C)CCNC`, the Drug uptake [7] is reported as “Active”.

Work on `C=CC(=O)Nc1cc(Nc2nccc(-c3cn(C4COC4)c4ccccc34)n2)c(OC)cc1N(C)CCN(C)C` yielded an IC50 [4] of 84.3 nM.

`C#CCn1cc(-c2ccnc(Nc3cc(NC(=O)C=C)c(N(C)CCN(C)C)cc3OC)n2)c2ccccc21` gave an IC50 [2] of 1.01 nM, an IC50 [4] of 690 nM and an IC50 [5] of 6.22 nM.

For `C=CCn1cc(-c2ccnc(Nc3cc(NC(=O)C=C)c(N(C)CCN(C)C)cc3OC)n2)c2ccccc21`, the inhibition [8] was “Active”, the inhibition [6] was “Active” and the IC50 [2] was 1.51 nM. It also gave an IC50 [3] of 15.4 nM and an IC50 [5] of 34 nM.

For `C=CC(=O)Nc1cc(Nc2ncc(C(F)(F)F)c(-c3cn(C4COC4)c4ccccc34)n2)c(OC)cc1N(C)CCN(C)C`, the inhibition [6] was “Active”.

With `C=CC(=O)Nc1cc(Nc2nccc(-c3cn(C4CC4)c4ccccc34)n2)c(OC)cc1N(C)CCN(C)C` [AUMOLERTINIB] the Activity [9] was “Non-Toxic”, the MRT inf [10] was 9.2 h and the inhibition [8] was “Active”. For the same compound, the AUC(0-inf) [11] was 5150 ng·h/mL, the “Ratio IC50” value [12] was 10 and the inhibition [6] was “Active”. For the same compound, the Tmax [13] was 1 h, the Tmax [14] was 6 h and the AUC(0-t) at 8 h [15] was 4580 ng·h/mL. The Cmax [16] was 528 ng/mL, the IC50 [2] was 0.18 nM and the IC50 [3] was 2.89 nM. The IC50 [4] was 209 nM, the inhibition in vivo at 5 mg/kg ([17]; Mus musculus, NCI-H1975, po, 264 h, read-out: TGI) was 83% and the bioavailability [18] was 52%. The Cmax [19] was 126 ng/mL, the half-life [20] was 7 h and the IC50 [5] was 1.44 nM. The AUC [21] was 2062 ng·h/mL and the inhibition [22] was “Active”.

With `C=CC(=O)Nc1cc(Nc2nccc(-c3cn(C)c4ccccc34)n2)c(OC)cc1N(C)CCN(C)C` [OSIMERTINIB] the MRT inf [10] was 9 h, the Tmax [23] was 6 h and the inhibition [8] was “Active”. For the same compound, the inhibition [6] was “Active”, the Tmax [13] was 1 h and the Cmax [24] was 48.3 ng/mL. It also gave a Cmax [16] of 81.4 ng/mL, an MRT [25] of 14.1 h and an IC50 [4] of […]. It also gave a TGI [17] of 70%, a bioavailability [18] of 9% and a half-life [20] of 5.4 h. The Drug metabolism [26] was “Metabolite_Detected”, the IC50 [5] was […] and the inhibition [22] was “Active”.
